Results reported in patent US9695155B2, “Herbicidal substituted pyrimidinyloxy benzene compounds” (E. I. DU PONT DE NEMOURS AND COMPANY, priority 2013, dated 2017).

Key:
barnyardgrass [1] = assay: Test B flooded paddy test; format: in vivo, Echinochloa crus-galli; details: Flood, 250 g ai/ha; 0 to 100 scale where 0 is no effect and 100 is complete control
In short: (§1)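 Plants were grown to the 2-leaf stage, then pots were flooded to 3 cm above the soil and compounds were applied directly into the paddy water. That depth was held throughout, and after 13 to 15 days in the greenhouse injury was rated visually against controls on a 0–100 scale (0 no effect, 100 complete control).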

pigweed = assay: Test C postemergence; format: in vivo, Amaranthus retroflexus; details: for Pigweed plant response rating: 31 g ai/ha; for Pigweed plant response rating / Plant response rating, Pigweed: scale 0 to 100 (0 no effect, 100 complete control)
In short: (§2)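 Preemergence: seeds sown in a loam soil–sand blend and sprayed with test chemical in a non-phytotoxic solvent mixture containing surfactant. Postemergence: plants at 2 to 18 cm (1- to 4-leaf stage) in peat-based medium, treated with the same formulation. Greenhouse 13 to 15 days, then visual rating 0 (no effect) to 100 (complete control).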

Italian ryegrass = assay: Test C postemergence; format: in vivo, Lolium multiflorum; details: for Ryegrass, Italian plant response rating: 31 g ai/ha; for Ryegrass, Italian plant response rating / Plant response rating, Ryegrass, Italian: scale 0 to 100 (0 no effect, 100 complete control)
In short: as §2

corn [2] = assay: Test A preemergence; format: in vivo, Zea mays; details: for Corn plant response rating (0 to 100 scale): 125 g ai/ha; for Corn plant response rating: 500 g ai/ha, 0 to 100 scale where 0 is no effect and 100 is complete control
In short: (§3)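 Injury scores run from 0, no effect, to 100, complete control, judged by eye against untreated plants roughly 10 days after treatment. Chemicals carried a surfactant in a non-phytotoxic solvent and went onto loam–sand soil preemergence or onto one- to two-leaf seedlings postemergence.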

corn [3] = assay: Test C preemergence; format: in vivo, Zea mays; details: for Corn plant response rating: preemergence; for Plant response rating, Corn: Preemergence, 62 g ai/ha, scale 0 to 100, 0 no effect, 100 complete control
In short: as §2

waterhemp = assay: Test C postemergence; format: in vivo, Amaranthus rudis; details: for Waterhemp plant response rating: 31 g ai/ha; for Waterhemp plant response rating / Plant response rating, Waterhemp: scale 0 to 100 (0 no effect, 100 complete control)
In short: as §2

barnyardgrass [4] = assay: Test C postemergence; format: in vivo, Echinochloa crus-galli; details: for Barnyardgrass plant response rating: 31 g ai/ha, 13 to 15 days; for Barnyardgrass plant response rating / Plant response rating, Barnyardgrass: scale 0 to 100 (0 no effect, 100 complete control)
In short: as §2

johnsongrass = assay: Test C postemergence; format: in vivo, Sorghum halepense; details: for Johnsongrass plant response rating: 31 g ai/ha; for Johnsongrass plant response rating / Plant response rating, Johnsongrass: scale 0 to 100 (0 no effect, 100 complete control)
In short: as §2

velvetleaf = assay: Test C postemergence; format: in vivo, Abutilon theophrasti; details: for Velvetleaf plant response rating: 31 g ai/ha; for Velvetleaf plant response rating / Plant response rating, Velvetleaf: scale 0 to 100 (0 no effect, 100 complete control)
In short: as §2

sedge, umbrella = assay: Test B flooded paddy test; format: in vivo, Cyperus difformis; details: Flood, 250 g ai/ha; 0 to 100 scale where 0 is no effect and 100 is complete control
In short: as §1

wild oat = assay: Test C postemergence; format: in vivo, Avena fatua; details: for Oat, Wild plant response rating: 31 g ai/ha; for Oat, Wild plant response rating / Plant response rating, Oat, Wild: scale 0 to 100 (0 no effect, 100 complete control)
In short: as §2

giant foxtail = assay: Test C preemergence; format: in vivo, Setaria faberii; details: for Foxtail, Giant plant response rating: preemergence; for Plant response rating, Foxtail, Giant: Preemergence, 62 g ai/ha, scale 0 to 100, 0 no effect, 100 complete control
In short: as §2

yellow nutsedge = assay: Test C postemergence; format: in vivo, Cyperus esculentus; details: for Nutsedge, Yellow plant response rating: 31 g ai/ha; for Nutsedge, Yellow plant response rating / Plant response rating, Nutsedge, Yellow: scale 0 to 100 (0 no effect, 100 complete control)
In short: as §2

barnyardgrass [5] = assay: Test A postemergence; format: in vivo, Echinochloa crus-galli; details: 0 to 100 scale where 0 is no effect and 100 is complete control; for Barnyardgrass plant response rating: 125 g ai/ha; for Plant response rating, Barnyardgrass: 500 g ai/ha
In short: as §3

morningglory = assay: Test A preemergence; format: in vivo, Ipomoea spp.; details: for Morningglory plant response rating (0 to 100 scale): 125 g ai/ha; for Morningglory plant response rating: 500 g ai/ha, 0 to 100 scale where 0 is no effect and 100 is complete control
In short: as §3

[6] = postemergence, visual rating, 13 to 15 days
[7] = 125 g ai/ha, postemergence, visual rating
[8] = Postemergence, 62 g ai/ha, 13 to 15 days
[9] = 125 g ai/ha, scale 0 (no effect) to 100 (complete control)
[10] = 250 g ai/ha, scale 0 (no effect) to 100 (complete control)
[11] = 16 g ai/ha, postemergence, 0 is no effect, 100 is complete control
[12] = 16 g ai/ha, scale 0 to 100 (0 no effect, 100 complete control)

SMILES: N#Cc1cccc(Oc2ncc(Cl)cn2)c1-n1cc(I)cn1 [Compound 204]
- Plant response rating, Barnyardgrass (barnyardgrass [1]): 20
- Pigweed plant response rating (pigweed; [6]): 80
- Plant response rating, Pigweed (pigweed; [7]): 95
- Plant response rating (0 to 100), Pigweed (pigweed; 250 g ai/ha, postemergence): 98
- Plant response rating, Pigweed (pigweed; [8]): 95
- Ryegrass, Italian plant response rating (Italian ryegrass; [6]): 5
- Plant response rating, Ryegrass, Italian (Italian ryegrass; [7]): 10
- Plant response rating (0 to 100), Ryegrass, Italian (Italian ryegrass; 250 g ai/ha, postemergence): 10
- Plant response rating, Ryegrass, Italian (Italian ryegrass; [8]): 5
- Corn plant response rating (0 to 100 scale) (corn [2]): 0
- Corn plant response rating (corn [2]): 30
- Corn plant response rating (corn [3]; [9]): 5
- Corn plant response rating (corn [3]; [10]): 35
- Plant response rating, Corn (corn [3]): 0
- Waterhemp plant response rating (waterhemp; [6]): 85
- Plant response rating, Waterhemp (waterhemp; [7]): 90
- Plant response rating (0 to 100), Waterhemp (waterhemp; 250 g ai/ha, postemergence): 95
- Plant response rating, Waterhemp (waterhemp; [8]): 90
- Barnyardgrass plant response rating (barnyardgrass [4]; postemergence, visual rating): 5
- Plant response rating, Barnyardgrass (barnyardgrass [4]; [7]): 5
- Plant response rating (0 to 100), Barnyardgrass (barnyardgrass [4]; 250 g ai/ha, postemergence): 35
- Plant response rating, Barnyardgrass (barnyardgrass [4]; Postemergence, 62 g ai/ha): 10
- Johnsongrass plant response rating (johnsongrass; [6]): 5
- Plant response rating, Johnsongrass (johnsongrass; [7]): 10
- Plant response rating (0 to 100), Johnsongrass (johnsongrass; 250 g ai/ha, postemergence): 30
- Plant response rating, Johnsongrass (johnsongrass; [8]): 5
- Velvetleaf plant response rating (velvetleaf; [6]): 35
- Plant response rating, Velvetleaf (velvetleaf; [7]): 60
- Plant response rating (0 to 100), Velvetleaf (velvetleaf; 250 g ai/ha, postemergence): 70
- Plant response rating, Velvetleaf (velvetleaf; [8]): 40
- Plant response rating, Sedge, Umbrella (sedge, umbrella): 90
- Oat, Wild plant response rating (wild oat; [6]): 20
- Plant response rating, Oat, Wild (wild oat; [7]): 15
- Plant response rating (0 to 100), Oat, Wild (wild oat; 250 g ai/ha, postemergence): 15
- Plant response rating, Oat, Wild (wild oat; [8]): 15
- Foxtail, Giant plant response rating (giant foxtail; [9]): 100
- Foxtail, Giant plant response rating (giant foxtail; [10]): 100
- Plant response rating, Foxtail, Giant (giant foxtail): 98
- Nutsedge, Yellow plant response rating (yellow nutsedge; [6]): 0
- Plant response rating, Nutsedge, Yellow (yellow nutsedge; [7]): 0
- Plant response rating (0 to 100), Nutsedge, Yellow (yellow nutsedge; 250 g ai/ha, postemergence): 5
- Plant response rating, Nutsedge, Yellow (yellow nutsedge; [8]): 10
- Barnyardgrass plant response rating (barnyardgrass [5]): 80
- Plant response rating, Barnyardgrass (barnyardgrass [5]): 90
- Morningglory plant response rating (0 to 100 scale) (morningglory): 90
- Morningglory plant response rating (morningglory): 90

SMILES: N#Cc1cnn(-c2c(Oc3ncc(Cl)cn3)cccc2C(F)F)c1 [Compound 236]
- Plant response rating, Barnyardgrass (barnyardgrass [1]): 30
- Plant response rating (0 to 100), Pigweed (pigweed; [11]): 60
- Pigweed plant response rating (pigweed; [6]): 90
- Plant response rating, Pigweed (pigweed; [7]): 95
- Plant response rating, Pigweed (pigweed; [8]): 90
- Plant response rating (0 to 100), Ryegrass, Italian (Italian ryegrass; [11]): 0
- Ryegrass, Italian plant response rating (Italian ryegrass; [6]): 0
- Plant response rating, Ryegrass, Italian (Italian ryegrass; [7]): 0
- Plant response rating, Ryegrass, Italian (Italian ryegrass; [8]): 0
- Corn plant response rating (0 to 100 scale) (corn [2]): 20
- Corn plant response rating (corn [2]): 90
- Corn plant response rating (corn [3]; [12]): 0
- Corn plant response rating (corn [3]; [9]): 90
- Plant response rating, Corn (corn [3]): 10
- Plant response rating (0 to 100), Waterhemp (waterhemp; [11]): 70
- Waterhemp plant response rating (waterhemp; [6]): 70
- Plant response rating, Waterhemp (waterhemp; [7]): 90
- Plant response rating, Waterhemp (waterhemp; [8]): 90
- Plant response rating (0 to 100), Barnyardgrass (barnyardgrass [4]; [11]): 5
- Barnyardgrass plant response rating (barnyardgrass [4]; postemergence, visual rating): 5
- Plant response rating, Barnyardgrass (barnyardgrass [4]; [7]): 10
- Plant response rating, Barnyardgrass (barnyardgrass [4]; Postemergence, 62 g ai/ha): 5
- Plant response rating (0 to 100), Johnsongrass (johnsongrass; [11]): 10
- Johnsongrass plant response rating (johnsongrass; [6]): 25
- Plant response rating, Johnsongrass (johnsongrass; [7]): 20
- Plant response rating, Johnsongrass (johnsongrass; [8]): 15
- Plant response rating (0 to 100), Velvetleaf (velvetleaf; [11]): 55
- Velvetleaf plant response rating (velvetleaf; [6]): 65
- Plant response rating, Velvetleaf (velvetleaf; [7]): 80
- Plant response rating, Velvetleaf (velvetleaf; [8]): 85
- Plant response rating, Sedge, Umbrella (sedge, umbrella): 100
- Plant response rating (0 to 100), Oat, Wild (wild oat; [11]): 0
- Oat, Wild plant response rating (wild oat; [6]): 0
- Plant response rating, Oat, Wild (wild oat; [7]): 5
- Plant response rating, Oat, Wild (wild oat; [8]): 5
- Foxtail, Giant plant response rating (giant foxtail; [12]): 35
- Foxtail, Giant plant response rating (giant foxtail; [9]): 100
- Plant response rating, Foxtail, Giant (giant foxtail): 100
- Plant response rating (0 to 100), Nutsedge, Yellow (yellow nutsedge; [11]): 0
- Nutsedge, Yellow plant response rating (yellow nutsedge; [6]): 0
- Plant response rating, Nutsedge, Yellow (yellow nutsedge; [7]): 5
- Plant response rating, Nutsedge, Yellow (yellow nutsedge; [8]): 0
- Barnyardgrass plant response rating (barnyardgrass [5]): 100
- Plant response rating, Barnyardgrass (barnyardgrass [5]): 100
- Morningglory plant response rating (0 to 100 scale) (morningglory): 30
- Morningglory plant response rating (morningglory): 100
